Results taken from patent US20230210999A1, “TARGETED PROTEASE DEGRADATION (TED) PLATFORM” (EUBULUS BIOTHERAPEUTICS INC., priority 2020, published 2023).
Like-named read-outs stand apart in the source and are kept apart here.

Experiments:
Format in all cases: cell-based, human
MV4;11 cells = test: Cell proliferation experiment (Alamar blue, 72 h), MV4;11; settings: read-out: Inhibitory activity IC50 on MV4;11
How it was run: (§1)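 Single-cell suspensions from log-phase cultures, passaged at least 2 generations, are seeded into 96-well plates and given compound in complete medium. Following 72 h, fluorescence with Alamar blue is recorded and fitted for IC50.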

NCIH82 cells = test: Cell proliferation experiment, NCI-H82; settings: read-out: Inhibitory activity IC50 on NCI-H82
How it was run: as §1

MDA-MB-231 cells = test: Cell proliferation experiment, MDA-MB-231; settings: read-out: Inhibitory activity IC50 on MDA-MB-231
How it was run: as §1

PC-3 = test: Cell proliferation experiment, PC-3; settings: read-out: Inhibitory activity IC50 on PC-3
How it was run: as §1

[1] = Homo sapiens, MV4-11, MV4;11 cells
[2] = Homo sapiens, NCI-H82, NCI-H82 cells
[3] = Homo sapiens, MDA-MB-231, MDA-MB-231 cells

Structure (SMILES)	IC50 (MV4;11 cells; [1])	IC50 (NCIH82 cells; [2])	IC50 (MDA-MB-231 cells; [3])	IC50 (PC-3; Homo sapiens, PC-3, PC-3 cells)	IC50 (MDA-MB-231 cells; MDA-MB-231 cells)	IC50 (PC-3; PC-3 cells)	IC50 (MV4;11 cells; MV4;11 cells)	IC50 (NCIH82 cells; NCI-H82 cells)
CNC(=O)c1ccccc1Nc1nc(Nc2ccc(N3CCN(C(=O)NC4CCC(NCCCCOCC(=O)Nc5ccc6c(c5)CN(C5CCC(=O)NC5=O)C6=O)CC4)CC3)cc2)ncc1Cl (centres unmarked) [UB-181109]	10 to 100 nM	100 to 1000 nM	> 1000 nM	> 1000 nM				
CNC(=O)c1ccccc1Nc1nc(Nc2ccc(N3CCN(C(=O)NCCCOCCNCCC#Cc4ccc5c(c4)CN(C4CCC(=O)NC4=O)C5=O)CC3)cc2)ncc1Cl (centres unmarked) [UB-181110]	10 to 100 nM	100 to 1000 nM	> 1000 nM	> 1000 nM				
CNC(=O)c1ncccc1Nc1nc(Nc2ccc(N3CCN(C(=O)N[C@H]4CC[C@@H](NCCOCCC#Cc5cccc6c5CN(C5CCC(=O)NC5=O)C6=O)CC4)CC3)cc2)ncc1C#N (some centres unmarked) [UB-181116]	100 to 1000 nM	> 1000 nM	> 1000 nM	> 1000 nM				
CNC(=O)c1ncccc1Nc1nc(Nc2ccc(N3CCN(C(=O)N[C@H]4CC[C@@H](NCCOCCC#Cc5ccc6c(c5)CN(C5CCC(=O)NC5=O)C6=O)CC4)CC3)cc2)ncc1C#N (some centres unmarked) [UB-181117]	10 to 100 nM	> 1000 nM	> 1000 nM	> 1000 nM				
CNC(=O)c1ccccc1Nc1nc(Nc2ccc(N3CCN(C(=O)N[C@H]4CC[C@@H](NCCOCCC#Cc5cccc6c5CN(C5CCC(=O)NC5=O)C6=O)CC4)CC3)cc2)ncc1Cl (some centres unmarked) [UB-181119]					100 to 1000 nM	10 to 100 nM	< 10 nM	100 to 1000 nM
CNC(=O)c1ccccc1Nc1nc(Nc2ccc(N3CCN(C(=O)N[C@H]4CC[C@@H](NCCOCCC#Cc5cccc6c5CN(C5CCC(=O)NC5=O)C6=O)CC4)CC3)cc2)ncc1Cl (some centres unmarked) [UB-181120]					100 to 1000 nM	10 to 100 nM	< 10 nM	100 to 1000 nM
CNC(=O)c1ccccc1Nc1nc(Nc2ccc(N3CCN(C(=O)N[C@H]4CC[C@@H](NCCOCCC#Cc5ccc6c(c5)CN(C5CCC(=O)NC5=O)C6=O)CC4)CC3)cc2)ncc1C#N (some centres unmarked) [UB-181123]					100 to 1000 nM	10 to 100 nM	< 10 nM	100 to 1000 nM
CNC(=O)c1ncccc1Nc1nc(Nc2ccc(N3CCN(C(=O)N[C@H]4CC[C@H](NCCOCCC#Cc5cccc6c5CN(C5CCC(=O)NC5=O)C6=O)CC4)CC3)cc2)ncc1C#N (some centres unmarked) [UB-181124]	10 to 100 nM	> 1000 nM	> 1000 nM	10 to 100 nM				
CNC(=O)c1ccccc1Nc1nc(Nc2ccc(N3CCN(C(=O)NC4CCC(NCCOCCC#Cc5ccc6c(c5)CN(C5CCC(=O)NC5=O)C6=O)CC4)CC3)cc2)ncc1C#N (centres unmarked) [UB-181125]	10 to 100 nM	> 1000 nM	> 1000 nM	100 to 1000 nM				
CNC(=O)c1ncccc1Nc1nc(Nc2ccc(N3CCN(C(=O)NC4CCC(NCCOCCC#Cc5ccc6c(c5)CN(C5CCC(=O)NC5=O)C6=O)CC4)CC3)cc2)ncc1Cl (centres unmarked) [UB-181129]	10 to 100 nM	100 to 1000 nM	> 1000 nM	> 1000 nM				

More lines, now with the values ahead:

IC50 (MV4;11 cells; [1])	IC50 (NCIH82 cells; [2])	IC50 (MDA-MB-231 cells; [3])	IC50 (PC-3; Homo sapiens, PC-3, PC-3 cells)	IC50 (MDA-MB-231 cells; MDA-MB-231 cells)	IC50 (PC-3; PC-3 cells)	IC50 (MV4;11 cells; MV4;11 cells)	IC50 (NCIH82 cells; NCI-H82 cells)	Structure (SMILES)
< 10 nM	10 to 100 nM	> 1000 nM	100 to 1000 nM					CNC(=O)c1ccccc1Nc1nc(Nc2ccc(N3CCN(C(=O)NCCCOCCNCCC#Cc4cccc5c4CN(C4CCC(=O)NC4=O)C5=O)CC3)cc2)ncc1Cl (centres unmarked) [UB-181111]
< 10 nM	100 to 1000 nM	> 1000 nM	> 1000 nM					CNC(=O)c1ccccc1Nc1nc(Nc2ccc(N3CCN(C(=O)N[C@H]4CC[C@@H](NCCOCCC#Cc5cccc6c5CN(C5CCC(=O)NC5=O)C6=O)CC4)CC3)cc2)ncc1C#N (some centres unmarked) [UB-181112]
< 10 nM	100 to 1000 nM			> 1000 nM	> 1000 nM			CNC(=O)c1ccccc1Nc1nc(Nc2ccc(N3CCN(C(=O)N[C@H]4CC[C@@H](NCCOCCC#Cc5ccc6c(c5)CN(C5CCC(=O)NC5=O)C6=O)CC4)CC3)cc2)ncc1C#N (some centres unmarked) [UB-181114]
< 10 nM	> 1000 nM	> 1000 nM	> 1000 nM					CNC(=O)c1ncccc1Nc1nc(Nc2ccc(N3CCN(C(=O)NC4CCC(NCCOCCC#Cc5cccc6c5CN(C5CCC(=O)NC5=O)C6=O)CC4)CC3)cc2)ncc1Cl (centres unmarked) [UB-181128]
